# Measurements reported in ChEMBL document CHEMBL5500375, “Design, synthesis, and evaluation of N1,N3-dialkyldioxonaphthoimidazoliums as antibacterial agents against methicillin-resistant Staphylococcus aureus” (Eur J Med Chem, 2024).
# Tests used:
# Staphylococcus aureus [1] = test: Antibacterial agents against methicillin-sensitive Staphylococcus aureus Newman assessed as absence of growth measured after 18 hrs by micro-dilution method; type: functional
# [2] = Metabolic stability in human liver microsomes assessed as intrinsic clearance at 2 uM preincubated for 5 mins followed by NADPH addition and measured for 35 mins by LC/MS analysis; type: ADME, Microsome; settings: read-out: CLH
# Bacillus subtilis = test: Antibacterial agents against Bacillus subtilis PS380 assessed as absence of growth measured after 18 hrs by micro-dilution method; type: functional
# [3] = Metabolic stability in human liver microsomes assessed as half life at 2 uM preincubated for 5 mins followed by NADPH addition and measured for 35 mins by LC/MS analysis; type: ADME, Microsome; settings: preincubation 5 min
# Staphylococcus aureus [4] = test: Antibacterial agents against methicillin-sensitive Staphylococcus aureus SA1 assessed as absence of growth measured after 18 hrs by micro-dilution method; type: functional
# [5] = In vivo toxicity in Drosophila melanogaster strain Oregon R assessed as survival rate at 0.1 to 1 mg/ml measured upto 72 hrs relative to control; type: organism-based; settings: 72 h, dose 0.1-1 mg/ml
# Staphylococcus aureus [6] = test: Antibacterial agents against methicillin-resistant Staphylococcus aureus SA3 assessed as absence of growth measured after 18 hrs by micro-dilution method; type: functional
# Staphylococcus aureus [7] = test: Antibacterial agents against methicillin-resistant Staphylococcus aureus USA300 assessed as absence of growth measured after 18 hrs by micro-dilution method; type: functional
Structure (SMILES),MIC (Staphylococcus aureus [1]) [µg/mL],CLint scaled at 2 µM [2] [mL/min/kg],MIC (Bacillus subtilis) [µg/mL],half-life at 2 µM [3] [min],MIC (Staphylococcus aureus [4]) [µg/mL],Activity [5],MIC (Staphylococcus aureus [6]) [µg/mL],MIC (Staphylococcus aureus [7]) [µg/mL]
CCCCCCCn1c2c([n+](Cc3ccco3)c1C)C(=O)c1ccccc1C2=O.[Br-],0.78,24,0.78,55.1,0.78,Non-Toxic,0.78,0.78
COCC[n+]1c2c(n(Cc3cnccn3)c1C)C(=O)c1ccccc1C2=O.[Br-] [SEPANTRONIUM BROMIDE],,,,,,,50,
CCCCCn1c2c([n+](Cc3ccccc3)c1C)C(=O)c1ccccc1C2=O.[Br-],,,6.25,,3.13,,1.56,
CCCCCCCCCn1c2c([n+](CCCC)c1C)C(=O)c1ccccc1C2=O.[Br-],,,,,,,3.13,
Cc1n(C2CCC2)c2c([n+]1Cc1ccccc1)C(=O)c1ccccc1C2=O.[Br-],,,,,,,3.13,
CCCC[n+]1c2c(n(CC3CC3)c1C)C(=O)c1ccccc1C2=O.[Br-],,,,,,,12.5,
CCCCn1c2c([n+](Cc3ccccc3)c1C)C(=O)c1ccccc1C2=O.[Br-],,,,,,,12.5,
CCCC[n+]1c2c(n(CC(C)C)c1C)C(=O)c1ccccc1C2=O.[Br-],,,,,,,3.13,
Cc1n(C2CCCCC2)c2c([n+]1Cc1ccccc1)C(=O)c1ccccc1C2=O.[Br-],,,1.56,,0.78,,1.56,
CCCCCCCn1c2c([n+](CCCCCCC)c1C)C(=O)c1ccccc1C2=O.[Br-],0.39,77,0.39,17.4,0.39,Non-Toxic,0.39,0.39
CCCCCCCCn1c2c([n+](CCCCCCCC)c1C)C(=O)c1ccccc1C2=O.[Br-],,,,,,,3.13,
CCCCCCCCn1c2c([n+](CCCC)c1C)C(=O)c1ccccc1C2=O.[Br-],0.39,125,0.39,11.6,0.39,Non-Toxic,0.39,0.39
CCCCCCCCCn1c2c([n+](Cc3ccccc3)c1C)C(=O)c1ccccc1C2=O.[Br-],0.39,26,1.56,51.8,0.39,Toxic,0.39,0.39
CCCCCCCCCCn1c2c([n+](Cc3ccccc3)c1C)C(=O)c1ccccc1C2=O.[Br-],0.39,103,1.56,13.2,0.39,Toxic,0.39,0.39
Cc1n(C2CC2)c2c([n+]1Cc1ccccc1)C(=O)c1ccccc1C2=O.[Br-],,,,,,,6.25,
Cc1n(C2CCCC2)c2c([n+]1Cc1ccccc1)C(=O)c1ccccc1C2=O.[Br-],,,,,,,12.5,
CCCCCCn1c2c([n+](Cc3ccccc3)c1C)C(=O)c1ccccc1C2=O.[Br-],,,0.78,,0.78,,0.78,
Cc1n(CC2CCCCC2)c2c([n+]1Cc1ccccc1)C(=O)c1ccccc1C2=O.[Br-],,,0.78,,1.56,,1.56,
CCCCn1c2c([n+](CC3CCCCC3)c1C)C(=O)c1ccccc1C2=O.[Br-],,,,,,,3.13,
CCn1c2c([n+](Cc3ccccc3)c1C)C(=O)c1ccccc1C2=O.[Br-],,,,,,,3.13,
Cc1n(C2CCCCCC2)c2c([n+]1Cc1ccccc1)C(=O)c1ccccc1C2=O.[Br-],,,,,,,6.25,
CCCC[n+]1c2c(n(C(C)C)c1C)C(=O)c1ccccc1C2=O.[Br-],,,,,,,3.13,
CCCCCn1c2c([n+](Cc3ccco3)c1C)C(=O)c1ccccc1C2=O.[Br-],,,,,,,3.13,
